Measured values published in patent publication US4642364A, “Unsaturated eicosanoic acids” (Hoffmann-La Roche Inc., priority 1986, dated 1987).

Key:
[1] = target: T1, Δ^12-lipoxygenase (Human Platelet) (Homo sapiens, UniProt P18054); assay: Δ^12-lipoxygenase assay (conversion of 14C-arachidonic acid to 12-HETE, human platelet enzyme); format: biochemical; conditions: 3-4 μM arachidonic acid
T1 construct: using human platelets as the enzyme source; from tissue; host or cells: human platelets (washed, lysed by freezing and thawing; 100,000×g supernatant, 50% ammonium sulfate precipitate)
T1 sequence (P18054 1-663): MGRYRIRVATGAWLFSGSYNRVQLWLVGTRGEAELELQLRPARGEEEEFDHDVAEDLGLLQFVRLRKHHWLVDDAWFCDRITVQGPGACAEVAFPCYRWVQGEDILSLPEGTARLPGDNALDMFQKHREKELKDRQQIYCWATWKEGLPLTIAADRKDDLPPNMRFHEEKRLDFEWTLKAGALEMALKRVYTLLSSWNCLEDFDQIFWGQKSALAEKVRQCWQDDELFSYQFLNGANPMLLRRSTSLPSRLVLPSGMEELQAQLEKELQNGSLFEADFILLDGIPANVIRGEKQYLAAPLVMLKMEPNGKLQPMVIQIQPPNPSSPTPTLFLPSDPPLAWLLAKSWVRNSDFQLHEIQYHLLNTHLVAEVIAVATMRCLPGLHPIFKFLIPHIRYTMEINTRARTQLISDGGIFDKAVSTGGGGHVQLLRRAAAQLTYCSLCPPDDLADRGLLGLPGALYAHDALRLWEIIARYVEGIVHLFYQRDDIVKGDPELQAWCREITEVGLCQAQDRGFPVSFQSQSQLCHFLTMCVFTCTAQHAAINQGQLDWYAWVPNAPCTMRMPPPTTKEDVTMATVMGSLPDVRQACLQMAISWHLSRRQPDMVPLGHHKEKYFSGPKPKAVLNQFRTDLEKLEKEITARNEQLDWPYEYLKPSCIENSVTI
Protocol: Δ^12 -lipoxygenase activity was measured by following the conversion of ^14 C-arachidonic acid (AA) to ^14 C-12-hydroxy-5,8,10,14-eicosatetraenoic acid (12-HETE) using human platelets as the enzyme source. Washed human platelets from approximately 2000 ml of blood were suspended in 50 ml of phosphate buffered saline (PBS) and then lysed by freezing and thawing (3 times). The platelet lysate was homogenized using a glass-teflon homogenizer and then particulate material was sedimented by centifugation at 100,000×g for 1 hr and the sediment was discarded. The supernatant was made 50% by weight saturated with respect to (NH4)2 SO4 by adding solid ammonium sulfate. The resultant suspension was allowed to stand at 0° overnight. The precipitate was collected by centrifugation and was dissolved in approximately 25 ml of PBS. This solution was the enzyme solution utilized to catalyze the conversion of AA to 12 HETE.
In order to test the compounds, separate incubation tubes for each of the compounds and for concentrations of these compounds were prepared in an ice bath. These tubes each contained 140 μl of PBS containing 1.78 mM glutathione, 10 μl of test drug in ethanol, 50 μl of platelet supernatant, and 50 μl of ^14 C-AA. […] Incubation tubes were prepared containing only buffer ethanol and ^14 c-AA were included as substrate controls. The final concentration of AA added as its ammonium salt in PBS, in each of the incubation tubes 3-4 μM. Sufficient enzyme solution prepared as above was added so that, under the conditions of the assay, approximately 80-90% by weight of the ^14 C-AA was converted to 12-HETE, as determined by prior controls. The tubes were incubated at 37° for 2 min, the reaction was stopped by the addition, while mixing on a mixer, of 2 ml of diethyl ether and 50 μl of 1M citric acid. The ether in the presence of citric acid extracted 12-HETE and AA from enzyme in the reaction medium in each of the samples. The ether extract was evaporated to dryness under nitrogen and then the residue was dissolved in 50 μl of chloroform:methanol (2:1 parts by volume). The dissolved residue containing 12-HETE and AA was applied, as rapidly as possible, to a glass fiber sheet impregnated with silica gel and then the chromatogram was developed using isooctane:methylethylketone:acetic acid (100:9:1 parts by volume) as solvent. Radioactive products and unconverted ^14 C-AA were located using a thin-layer chromatography scanner. The appropriate regions of the chromatogram were cut out, then the radioactivity quantitated using a liquid scintillation counter. The amount of ^14 C-AA converted to product is used as a measure of Δ^12 -lipoxygenase activity.
The mean percent inhibition was calculated by multiplying 100 times the following fraction: [formula] at each concentration of the various test drugs was calculated.

[2] = system: SRS-A synthesis (Rat Peritoneal Cells); assay: Inhibition of the in vitro synthesis of SRS-A in rat peritoneal cells (ionophore A23187 challenge, guinea pig ileum bioassay); format: cell-based, rat (male Sprague-Dawley); conditions: for inhibition at 10 µM: p values given
From the text: To study the effect of drugs on SRS-A synthesis in rat peritoneal cells, these cells (including mast cells, monocytes, eosinophils and neutrophils)were isolated from male Sprague-Dawley rats (Charles River Laboratories) weighing 180-220 g by the lavage procedure described by Herzig, D. J. and Kusner, E. J., Journal of Pharmacology and Experimental Therapeutics, 194, 457-462 (1975) with the exception that Hanks balanced salt solution used in these experiments was adjusted to pH 6.9 with 5% (V/V) of 0.1M aqueous phosphate buffer and contained 50 m/gml sodium heparin. After removal from the peritoneal cavity of rats, the cells were subsequently isolated by centrifugation at 400×gravity for 10 minutes at 4° C. and resuspended to a concentration of about 2,000,000 cells per ml in Hanks buffer.
Samples for evaluation were prepared by adding various concentrations of test drugs to 2 ml aliquots of the resuspended cells in Hanks buffer. The 2 ml samples used for control contained 2 ml aliquots of resuspended cells in Hanks buffer without drugs. All of the above samples (2 ml final volume) were preincubated at 37° C. for 10 minutes in the presence of varying concentrations of test drug prior to challenge with 5×10^-7 M ionophore […]. This ionophore is disclosed in Burka and Flower, Br. J. Pharmacology 65: 35-41 (1979). Antibiotic A23187 was used as a probe for the study of calcium and magnesium function in biological systems. After ionophore challenge, SRS-A was synthesized in the samples by the cells for 10 minutes (at 37° C.) after which this synthesis was terminated by placing the samples in a boiling water bath for 10 minutes followed by centrifugation at 2,000×g (10 minutes) at 4° C. to remove coagulated protein and cellular debris. The SRS-A present in the resulting supernatants was quantitated by a bioassay using a guinea pig ileum as described in Orange, and Austen, Adv. Immunol. 10: 105-144 144 (1969). For this bioassay, a 1.5 cm segment of ileum was removed from animals weighing 300 to 400 g and suspended in an organ bath containing 10 ml of Tyrodes solution with 10^-6 M atropine sulfate and 10^-6 M pyrilamine maleate. The bath was maintained at 37° C. and aerated with a mixture of 95% O2 and 5%CO2. The concentration of SRS-A in the experimental samples was determined by a comparison of the isotonic contraction responses elicited by the samples with those obtained with varying amounts of an SRS-A standard solution prepared from chopped guinea pig lung as disclosed in Hitchcock, M. J. Pharmacol. Exp. Ther. 207: 630-640 (1978) and quantituted by the procedures of Orange, R. R. and Austen, K. F. Adv. Immunol. 10: 105-144 (1969) against histamine (1 unit of SRS-A being that amount which gives a contractile response similar to that of […] of histamine). In the absence of drug, the ionophore A23187-induced SRS-A synthesis varied between 40 to 50 units of SRS-A per 10^6 cells. In the presence of increasing concentrations of test drug, there was a concentration-related decrease in SRS-A synthesis. [formula] at each concentration of the various test drugs was calculated. The concentration of test drug which inhibits the synthesis of SRS-A by 50% (IC50) was determined for each test drug from a plot of the mean percent inhibition versus the log of drug concentration. The difference of units of SRS-A in the test sample used in the fraction given above was obtained by subtracting from the units of SRS-A in the control from the actual measurement of the units of SRS-A in the sample.

[3] = target: T2, Prostaglandin endoperoxide synthase (Ovis aries, UniProt P05979); assay: Prostaglandin endoperoxide synthase (PES) assay, oxygen uptake with sheep seminal vesicular gland microsomes; format: biochemical; conditions: 33 μM arachidonic acid, pH 8.5
T2 construct: sheep seminal vesicular gland microsomes (SSVM) as the enzyme source; from tissue; host or cells: sheep seminal vesicular gland microsomes, acetone powder
T2 sequence (P05979 25-600): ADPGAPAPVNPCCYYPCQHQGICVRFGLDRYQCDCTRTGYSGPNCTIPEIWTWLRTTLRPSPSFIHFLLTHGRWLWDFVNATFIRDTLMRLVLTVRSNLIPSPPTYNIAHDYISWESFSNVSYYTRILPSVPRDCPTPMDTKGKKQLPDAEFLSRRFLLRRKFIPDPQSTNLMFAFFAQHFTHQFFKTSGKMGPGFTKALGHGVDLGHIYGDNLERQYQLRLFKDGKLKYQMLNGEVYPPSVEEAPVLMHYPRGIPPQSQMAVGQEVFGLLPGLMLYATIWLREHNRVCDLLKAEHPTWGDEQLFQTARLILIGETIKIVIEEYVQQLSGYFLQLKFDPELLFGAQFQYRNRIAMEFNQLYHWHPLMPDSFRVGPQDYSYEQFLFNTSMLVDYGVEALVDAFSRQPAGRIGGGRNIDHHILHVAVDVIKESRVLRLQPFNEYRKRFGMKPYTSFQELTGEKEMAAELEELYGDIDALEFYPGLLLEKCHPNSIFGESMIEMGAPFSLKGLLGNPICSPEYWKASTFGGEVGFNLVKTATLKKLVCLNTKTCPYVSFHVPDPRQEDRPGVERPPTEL
Protocol: The activity of PES was measured polarigraphically by following the disappearance of dissolved O2 from incubation mixtures containing arachidonic acid (AA) as substrate and sheep seminal vesicular gland microsomes (SSVM) as the enzyme source. Fifty mg of an acetone powder of SSVM were suspended, using a glass teflon homogenizer, in 1 ml of 0.1M tris. HCl (pH, 8.5) containing 0.67 mM phenol. This suspension of SSVM was incubated at room temperature in the presence of phenol to maximumly activate the PES and then the suspension was kept at 0°. Samples in a separate reaction vessel were each prepared by adding tris-phenol buffer (2.8 ml), 0.05 ml of the SSVM suspension, and a maximum of 0.12 ml of ethanol containing various concentrations of the test drug. […] Reaction vessels were then allowed to reach temperature equilibrium. An oxygen electrode is inserted into the vessel and then 24 μl of 4.1 mM AA are injected into the sealed vessel through a port on the side of the electrode. The final concentration of AA is 33 μM. Oxygen uptake is recorded and the initial rate of oxygen uptake used as a measure of PES activity. Each of the test compounds were tested initially at a high concentration (1 mM) and then, if required, dilutions are made. The mean percent inhibition was obtained for each concentration of the various test drugs by expressing as a percent the number obtained by dividing the difference of the oxygen uptake of the test sample by the oxygen uptake of the control. The concentration of test drug which inhibits the synthesis of PES by 50% (IC50) which is given in the following table was determined for each test drug from a plot of mean percent inhibition verses drug concentration. The difference of the oxygen uptake of test sample was obtained by subtracting from the oxygen uptake of the control, the oxygen uptake of the test sample.

[4] = target: T2, Prostaglandin endoperoxide synthase; conditions: statement on standard; cited from earlier work
[5] = target: T1, Δ^12-lipoxygenase (Human Platelet); conditions: statement on standard; cited from earlier work
[6] = system: SRS-A synthesis (Rat Peritoneal Cells); conditions: statement on standard; cited from earlier work

Row | SMILES | IC50 [1] | IC50 [2] | inhibition at 10 µM [2] | IC50 [3] | inhibition of prostaglandin endoperoxide synthase (in words) [4] | inhibition of Δ^12-lipoxygenase (in words) [5] | inhibition of SRS-A synthesis (in words) [6]
1 | CCCCC/C=C\CCCCC#CCC#CCCCC(=O)O [Compound 6, (Z)-14-eicosen-5,8-diynoic acid] | ~100 µM | 1 to 3 µM | 100% | > 100 µM | – | – | –
2 | CCCCC/C=C\C/C=C\CC#CCC#CCCCC(=O)O [Compound 3, (Z,Z)-11,14-eicosadien-5,8-diynoic acid] | 10 to 100 µM | – | 81 ± 6% | 10 to 100 µM | – | – | –
3 | CCCCC/C=C\C/C=C\CC#CCC#CCCCC(=O)OC [Compound 4, (Z,Z)-11,14-eicosadien-5,8-diynoic acid methyl ester] | 10 to 100 µM | < 10 µM | 85 ± 8% | – | – | – | –
4 | CCCCC/C=C\CCCCC#CCC#CCCC(F)C1=NC(C)(C)CO1 (stereo not drawn) [Compound 8, 2-(1-fluorononadec-13(Z)-en-4,7-diynyl)-4,5-dihydro-4,4-dimethyloxazole] | > 100 µM | < 10 µM | 88 ± 6% | – | – | – | –
5 | CCCCCCCC/C=C\CC#CCC#CCCCC(=O)O [Compound 5, (Z,Z)-11-eicosen-5,8-diynoic acid] | 13 µM | 1 to 3 µM | 100% | > 100 µM | – | – | –
6 | CCCCCC#CCC#CCC#CCC#CCCCC(=O)O [5,8,11,14-Eicosatetraynoic Acid, reference compound] | – | 3 to 4 µM | 100% | 5 µM | potent inhibitor | potent inhibitor | standard potent inhibitor of SRS-A synthesis
7 | CCCCC/C=C\CCCCC#CCC#CCCCC1=NC(C)(C)CO1 [Compound 7, 2[(Z)-13-nonadecen-4,7-diynyl]-4,5-dihydro-4,4-dimethyloxazole] | ~100 µM | < 10 µM | 86 ± 8% | – | – | – | –
8 | CCCCCC#CCC#CCCCCCCCC(=O)O [9,12-Octadecadiynoic Acid, reference compound] | ≥ 100 µM | 3 µM | 87 ± 1% | 0.1 to 1 µM | potent standard inhibitor | not being an inhibitor of Δ^12 lipoxygenase | potent standard inhibitor of SRS-A synthesis
